According to PMC6691788, “Design and synthesis of phthalazine-based compounds as potent anticancer agents with potential antiangiogenic activity via VEGFR-2 inhibition” (Journal of Enzyme Inhibition and Medicinal Chemistry, 2019):

Columns and labels:
Assay in all cases: NCI 60 cell panel SRB screen
Format in all cases: cell-based
MOLT-4 = conditions: Homo sapiens; for GI50 / IC (TGI) / CC50: MOLT-4, 5 log dose; for CC50: 48 h, read-out: LC50 (the source's name); for activity at 10 µM: MOLT-4, single dose 10 μM, read-out: percent cell growth promotion
HOP-92 = conditions: Homo sapiens; for GI50 / IC (TGI) / CC50: HOP-92, 5 log dose; for CC50: 48 h, read-out: LC50 (the source's name); for activity at 10 µM: HOP-92, single dose 10 μM, read-out: percent cell growth promotion
NCI-H322M = conditions: Homo sapiens; for GI50 / IC (TGI) / CC50: 5 log dose; for CC50: 48 h, read-out: LC50 (the source's name); for activity at 10 µM: single dose 10 μM, read-out: percent cell growth promotion
NCI-H522 = conditions: Homo sapiens; for GI50 / IC (TGI) / CC50: NCI-H522, 5 log dose; for CC50: 48 h, read-out: LC50 (the source's name); for activity at 10 µM: NCI-H522, single dose 10 μM, read-out: percent cell growth promotion
COLO 205 = conditions: Homo sapiens; for GI50 / IC (TGI) / CC50: COLO 205, 5 log dose; for CC50: 48 h, read-out: LC50 (the source's name); for activity at 10 µM: COLO 205, single dose 10 μM, read-out: percent cell growth promotion
HCC-2998 = conditions: Homo sapiens; for GI50 / IC (TGI) / LC50 (50% lethal concentration): HCC-2998, 5 log dose; for LC50 (50% lethal concentration): 48 h; for activity at 10 µM: HCC-2998, single dose 10 μM, read-out: percent cell growth promotion
HCT-15 = conditions: Homo sapiens; for GI50 / IC (TGI) / CC50: HCT-15, 5 log dose; for CC50: 48 h, read-out: LC50 (the source's name); for activity at 10 µM: HCT-15, single dose 10 μM, read-out: percent cell growth promotion
HT29 = conditions: Homo sapiens, HT-29; for GI50 / IC (TGI) / CC50: HT29, 5 log dose; for CC50: 48 h, read-out: LC50 (the source's name); for activity at 10 µM: HT29, single dose 10 μM, read-out: percent cell growth promotion
KM12 = conditions: Homo sapiens; for GI50 / IC (TGI) / CC50: KM12, 5 log dose; for CC50: 48 h, read-out: LC50 (the source's name); for activity at 10 µM: KM12, single dose 10 μM, read-out: percent cell growth promotion
LOX IMVI = conditions: Homo sapiens; for CC50: 5 log dose, 48 h, read-out: LC50 (the source's name); for IC (TGI): read-out: TGI; for activity at 10 µM: read-out: percent cell growth promotion
MDA-MB-435 = conditions: Homo sapiens; for GI50: MDA-MB-435; for IC (TGI): MDA-MB-435, read-out: TGI; for activity at 10 µM: MDA-MB-435, read-out: percent cell growth promotion; for CC50: MDA-MB-435, 5 log dose, 48 h, read-out: LC50 (the source's name)
OVCAR-4 = conditions: Homo sapiens; for GI50 / IC (TGI) / CC50: OVCAR-4, 5 log dose; for CC50: 48 h, read-out: LC50 (the source's name); for activity at 10 µM: OVCAR-4, single dose 10 μM, read-out: percent cell growth promotion
UO-31 = conditions: Homo sapiens; for GI50 / IC (TGI) / CC50: UO-31, 5 log dose; for CC50: 48 h, read-out: LC50 (the source's name); for activity at 10 µM: UO-31, single dose 10 μM, read-out: percent cell growth promotion
MCF7 = conditions: Homo sapiens; for GI50: MCF7; for IC (TGI): MCF7, read-out: TGI; for activity at 10 µM: MCF7, read-out: percent cell growth promotion; for CC50: MCF7, 5 log dose, 48 h, read-out: LC50 (the source's name)
MDA-MB 231/ATCC = conditions: Homo sapiens; for GI50 / CC50: MDA-MB-231; for IC (TGI): MDA-MB-231, read-out: TGI; for activity at 10 µM: MDA-MB-231, read-out: percent cell growth promotion; for CC50: MDA-MDA 231/ATCC, 5 log dose, 48 h, read-out: LC50 (the source's name)
HS 578T = conditions: Homo sapiens; for GI50 / IC (TGI) / activity at 10 µM: Hs-578T; for IC (TGI): read-out: TGI; for activity at 10 µM: read-out: percent cell growth promotion; for CC50: HS 578T, 5 log dose, 48 h, read-out: LC50 (the source's name)
BT-549 = conditions: Homo sapiens; for GI50: BT-549; for IC (TGI): BT-549, read-out: TGI; for activity at 10 µM: BT-549, read-out: percent cell growth promotion; for CC50: BT-549, 5 log dose, 48 h, read-out: LC50 (the source's name)
MDA-MB-468 = conditions: Homo sapiens; for activity at 10 µM: MDA-MB-468, MDA-MBA-468, single dose 10 μM, read-out: percent cell growth promotion; for GI50 / IC (TGI) / CC50: MDA-MB-468, 5 log dose; for CC50: 48 h, read-out: LC50 (the source's name)
Method in brief: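 Cells in RPMI 1640 with 5% FBS, preincubated 24 h, then exposed to five concentrations for 48 h at 37 °C. TCA fixation, SRB staining, absorbance at 515 nm; a time-zero plate allows GI50 (50% reduction in net protein gain), TGI and LC50 (50% loss versus start).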

Compound: COc1cccc(NCc2nnc(Nc3ccc(Cl)cc3)c3ccccc23)c1 [Compound 16d, N-(4-Chlorophenyl)-4-((3-methoxyphenylamino)methyl)phthalazin-1-amine]
- GI50 (MOLT-4): 1.1 µM
- IC (TGI) (MOLT-4): 7.57 µM
- CC50 (MOLT-4): > 25 µM
- activity at 10 µM (MOLT-4): -27.2%
- GI50 (HOP-92): 0.32 µM
- IC (TGI) (HOP-92): 2.91 µM
- CC50 (HOP-92): > 25 µM
- activity at 10 µM (HOP-92): -32.8%
- GI50 (NCI-H322M): 1.4 µM
- IC (TGI) (NCI-H322M): 7.85 µM
- CC50 (NCI-H322M): > 25 µM
- activity at 10 µM (NCI-H322M): 3.32%
- GI50 (NCI-H522): 0.32 µM
- IC (TGI) (NCI-H522): 3.31 µM
- CC50 (NCI-H522): 13.1 µM
- activity at 10 µM (NCI-H522): -43.8%
- GI50 (COLO 205): 0.49 µM
- IC (TGI) (COLO 205): 4.01 µM
- CC50 (COLO 205): 15.4 µM
- activity at 10 µM (COLO 205): -22.2%
- GI50 (HCC-2998): 3.44 µM
- IC (TGI) (HCC-2998): 8.79 µM
- LC50 (50% lethal concentration) (HCC-2998): 22.5 µM
- activity at 10 µM (HCC-2998): 2.79%
- GI50 (HCT-15): 1.78 µM
- IC (TGI) (HCT-15): 7.56 µM
- CC50 (HCT-15): > 25 µM
- activity at 10 µM (HCT-15): -18.1%
- GI50 (HT29): 0.34 µM
- IC (TGI) (HT29): 3.62 µM
- CC50 (HT29): 12 µM
- activity at 10 µM (HT29): -21%
- GI50 (KM12): 0.13 µM
- IC (TGI) (KM12): 6.52 µM
- CC50 (KM12): 18.6 µM
- activity at 10 µM (KM12): -24.9%
- GI50 (LOX IMVI): 1.11 µM
- CC50 (LOX IMVI): 12.8 µM
- IC (TGI) (LOX IMVI): 4.83 µM
- activity at 10 µM (LOX IMVI): -58.7%
- GI50 (MDA-MB-435): 0.73 µM
- IC (TGI) (MDA-MB-435): 4.38 µM
- activity at 10 µM (MDA-MB-435): -10.3%
- CC50 (MDA-MB-435): 12 µM
- GI50 (OVCAR-4): 1.33 µM
- IC (TGI) (OVCAR-4): 17.6 µM
- CC50 (OVCAR-4): > 25 µM
- activity at 10 µM (OVCAR-4): 17.2%
- GI50 (UO-31): 0.6 µM
- IC (TGI) (UO-31): 5.28 µM
- CC50 (UO-31): > 25 µM
- activity at 10 µM (UO-31): -42.5%
- GI50 (MCF7): 0.93 µM
- IC (TGI) (MCF7): 6.4 µM
- activity at 10 µM (MCF7): -1.96%
- CC50 (MCF7): 24.9 µM
- GI50 (MDA-MB 231/ATCC): 1.32 µM
- IC (TGI) (MDA-MB 231/ATCC): 6.32 µM
- activity at 10 µM (MDA-MB 231/ATCC): -27.1%
- CC50 (MDA-MB 231/ATCC): 19.7 µM
- GI50 (HS 578T): 2.9 µM
- IC (TGI) (HS 578T): 11.5 µM
- activity at 10 µM (HS 578T): 0.54%
- CC50 (HS 578T): > 25 µM
- GI50 (BT-549): 1.9 µM
- IC (TGI) (BT-549): 7.42 µM
- activity at 10 µM (BT-549): -12.2%
- CC50 (BT-549): 24.8 µM
- activity at 10 µM (MDA-MB-468): -21.9%
- GI50 (MDA-MB-468): 1.05 µM
- IC (TGI) (MDA-MB-468): 4.73 µM
- CC50 (MDA-MB-468): 19.5 µM

Compound: Clc1ccc(Nc2nnc(COc3ccccc3)c3ccccc23)cc1 [Compound 17a, N-(4-Chlorophenyl)-4-(phenoxymethyl)phthalazin-1-amine]
- GI50 (MOLT-4): 1.06 µM
- IC (TGI) (MOLT-4): 6.7 µM
- CC50 (MOLT-4): > 25 µM
- activity at 10 µM (MOLT-4): -32.6%
- GI50 (HOP-92): 0.33 µM
- IC (TGI) (HOP-92): 3.09 µM
- CC50 (HOP-92): > 25 µM
- activity at 10 µM (HOP-92): -28%
- GI50 (NCI-H322M): 1.56 µM
- IC (TGI) (NCI-H322M): 8.2 µM
- CC50 (NCI-H322M): > 25 µM
- activity at 10 µM (NCI-H322M): 21.1%
- GI50 (NCI-H522): 0.35 µM
- IC (TGI) (NCI-H522): 4.04 µM
- CC50 (NCI-H522): 16.7 µM
- activity at 10 µM (NCI-H522): -17.4%
- GI50 (COLO 205): 0.45 µM
- IC (TGI) (COLO 205): 4.38 µM
- CC50 (COLO 205): 16.1 µM
- activity at 10 µM (COLO 205): -5.75%
- GI50 (HCC-2998): 3.81 µM
- IC (TGI) (HCC-2998): 8.36 µM
- LC50 (50% lethal concentration) (HCC-2998): 18.3 µM
- activity at 10 µM (HCC-2998): 8.55%
- GI50 (HCT-15): 2.05 µM
- IC (TGI) (HCT-15): 6.75 µM
- CC50 (HCT-15): 19.7 µM
- activity at 10 µM (HCT-15): 4.45%
- GI50 (HT29): 0.42 µM
- IC (TGI) (HT29): 4.25 µM
- CC50 (HT29): 17.4 µM
- activity at 10 µM (HT29): 1.32%
- GI50 (KM12): 2.65 µM
- IC (TGI) (KM12): 7.72 µM
- CC50 (KM12): 22.4 µM
- activity at 10 µM (KM12): 0.18%
- GI50 (LOX IMVI): 1.29 µM
- CC50 (LOX IMVI): 11.9 µM
- IC (TGI) (LOX IMVI): 4.85 µM
- activity at 10 µM (LOX IMVI): -62%
- GI50 (MDA-MB-435): 1.01 µM
- IC (TGI) (MDA-MB-435): 5.31 µM
- activity at 10 µM (MDA-MB-435): -3.33%
- CC50 (MDA-MB-435): 16.2 µM
- GI50 (OVCAR-4): 2.09 µM
- IC (TGI) (OVCAR-4): > 25 µM
- CC50 (OVCAR-4): > 25 µM
- activity at 10 µM (OVCAR-4): 18.1%
- GI50 (UO-31): 0.72 µM
- IC (TGI) (UO-31): 5.2 µM
- CC50 (UO-31): 23.9 µM
- activity at 10 µM (UO-31): -12.3%
- GI50 (MCF7): 1.18 µM
- IC (TGI) (MCF7): 6.07 µM
- activity at 10 µM (MCF7): 1.31%
- CC50 (MCF7): 19.8 µM
- GI50 (MDA-MB 231/ATCC): 1.28 µM
- IC (TGI) (MDA-MB 231/ATCC): 6.9 µM
- activity at 10 µM (MDA-MB 231/ATCC): 11.4%
- CC50 (MDA-MB 231/ATCC): 24.8 µM
- GI50 (HS 578T): 2.58 µM
- IC (TGI) (HS 578T): 10.5 µM
- activity at 10 µM (HS 578T): 14.4%
- CC50 (HS 578T): > 25 µM
- GI50 (BT-549): 2.05 µM
- IC (TGI) (BT-549): 6.65 µM
- activity at 10 µM (BT-549): -9.97%
- CC50 (BT-549): 19 µM
- activity at 10 µM (MDA-MB-468): -16.9%
- GI50 (MDA-MB-468): 1.49 µM
- IC (TGI) (MDA-MB-468): 7.62 µM
- CC50 (MDA-MB-468): > 25 µM
